From US7015306B2 (BioSynthema, Inc., priority 1999, dated 2006)
pKd: −log10 of the molar value. Where a SMILES comes first, the peptide text is derived from it. [ ]: non-standard residue; d: D form. The star is where a group is joined. ξ: configuration not given here. DTPA = O=C(O)CN(CCN(CC(=O)O)CC(=O)O)CCN(CC(=O)O)CC(=O)*; ξGly(4-Pip(1-amidino)) = N=C(N)N1CCC(C(N)C(=O)O)CC1; ξPhe(4-guanidino) = N=C(N)Nc1ccc(CC(N)C(=O)O)cc1; ξGly(piperidin-4-yl) = NC(C(=O)O)C1CCNCC1; Dmt = Cc1cc(O)cc(C)c1C[C@H](N)C(=O)O; Pro(4-oxo) = O=C1CN[C@H](C(=O)O)C1; mTyr = N[C@@H](Cc1cccc(O)c1)C(=O)O; Ala(cPr) = N[C@@H](CC1CC1)C(=O)O; tBuAla = CC(C)(C)C[C@H](N)C(=O)O; Cha = N[C@@H](CC1CCCCC1)C(=O)O; Tle = CC(C)(C)[C@H](N)C(=O)O; Pip = O=C(O)[C@@H]1CCCCN1; dPip = O=C(O)[C@H]1CCCCN1; Ac6c = NC1(C(=O)O)CCCCC1; Aze = O=C(O)[C@@H]1CCN1

Tests used:
[1] = In vitro urine stability assay (HPLC) of In-111 labeled peptide; type: in vitro ADME; conditions: rat urine, 37EC, 4 hours
Method: (§1) All reagents were purchased from Sigma unless otherwise noted. The peptide and ^111InCl3 in 0.05 N HCl were incubated in a sodium acetate/ascorbic acid buffer for 30 minutes at room temperature. The reaction was diluted with 5% ethanol/95% PBS before using in subsequent in vitro assays.
(§2) Human serum was purchased from Sigma (H 1388). The labeled peptide was incubated in either human serum or rat urine at 37EC for the specified amount of time. An aliquot was filtered through a 0.45 μm syringe filter prior to HPLC injection.

neurotensin receptors = neurotensin receptors (Homo sapiens, UniProt P30989); experiment: Competitive binding assay on frozen tissue sections of receptor-positive human tumors vs radioiodinated native neurotensin; conditions: Table 3
Sequence of neurotensin receptors (P30989 whole entry): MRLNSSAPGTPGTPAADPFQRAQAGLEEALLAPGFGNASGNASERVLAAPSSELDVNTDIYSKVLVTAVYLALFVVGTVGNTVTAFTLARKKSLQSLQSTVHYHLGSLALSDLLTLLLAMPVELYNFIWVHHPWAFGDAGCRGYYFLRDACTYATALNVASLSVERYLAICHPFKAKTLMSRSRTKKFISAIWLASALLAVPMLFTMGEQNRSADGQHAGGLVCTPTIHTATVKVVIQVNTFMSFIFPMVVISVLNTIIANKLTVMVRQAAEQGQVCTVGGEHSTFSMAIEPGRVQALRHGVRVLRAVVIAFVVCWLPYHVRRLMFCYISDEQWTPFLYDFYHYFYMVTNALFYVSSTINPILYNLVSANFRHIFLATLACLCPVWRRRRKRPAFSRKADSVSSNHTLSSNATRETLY
Text: Frozen tissue sections from receptor-positive human tumors were used in a competitive binding assay.

[2] = In vitro serum stability assay (HPLC) of In-111 labeled peptide; type: in vitro ADME, human; conditions: human serum, 37EC, 4 hours
Method: as §1, §2

[3] = molecular target: T1, HT 29 colon adenocarcinoma cells (Homo sapiens, UniProt P30989); conditions: Ψ(CH2NH) pseudo-peptide analogs; cited from earlier work
T1 construct: host or cells: HT 29 colon adenocarcinoma cells (endogenous receptors)
T1 sequence (P30989 whole entry): as above

[4] = molecular target: rat brain synaptic membranes; conditions: read-out: Kd binding to rat brain synaptic membranes; cited from earlier work

Molecule | % of peptide at 4 hours after incubation at 37EC, Urine [1] | pKd (neurotensin receptors) | % of peptide at 4 hours after incubation at 37EC, Serum [2] | pKd [3] | pKd [4]
CC(C)(C)C[C@H](NC(=O)[C@@H](NC(=O)[C@H](Cc1ccc(O)cc1)NC(=O)[C@@H]1CCCN1C(=O)[C@H](CCCNC(=N)N)NC(=O)C(NC(=O)[C@@H]1CCCN1C(=O)[C@H](CCCCN)NC(=O)[C@H](CC(N)=O)NC(=O)[C@H](CCC(=O)O)NC(=O)[C@@H](Cc1ccc(O)cc1)NC(=O)CN(CCN(CCN(CC(=O)O)CC(=O)O)CC(=O)O)CC(=O)O)C1CCN(C(=N)N)CC1)C(C)(C)C)C(=O)O (stereo partly drawn) [Compound XV, DTPA-DTyr-Glu-Asn-Lys-Pro-Gly(PipAm)-Arg-Pro-Tyr-tBuGly-tBuAla-OH] ({DTPA}-[dY]ENKP[ξGly(4-Pip(1-amidino))]RPY[Tle][tBuAla]-OH) | 89.8% | 8.46 | 98.9% |  | 
CC(C)C[C@H](NC(=O)[C@@H](NC(=O)[C@H](Cc1ccc(O)cc1)NC(=O)[C@@H]1CCCN1C(=O)[C@H](CCCNC(=N)N)NC(=O)C(NC(=O)[C@@H]1CCN1C(=O)[C@@H](CCCCN)NC(=O)CN(CCN(CCN(CC(=O)O)CC(=O)O)CC(=O)O)CC(=O)O)C1CCN(C(=N)N)CC1)C(C)(C)C)C(=O)O (stereo partly drawn) [DTPA-DLys-AzeCA-Gly(PipAm)-Arg-Pro-Tyr-tBuGly-Leu-OH] ({DTPA}-[dK][Aze][ξGly(4-Pip(1-amidino))]RPY[Tle]L-OH) | 49.8% | 7.62 | 79.5% |  | 
CC[C@H](C)[C@H](NC(=O)[C@H](Cc1ccc(O)cc1)NC(=O)[C@@H]1CCCN1C(=O)C(Cc1ccc(NC(=N)N)cc1)NC(=O)C(Cc1ccc(NC(=N)N)cc1)NC(=O)[C@@H]1CCCN1C(=O)[C@@H](CCCCN)NC(=O)CN(CCN(CCN(CC(=O)O)CC(=O)O)CC(=O)O)CC(=O)O)C(=O)N[C@@H](CC(C)C)C(=O)O (stereo partly drawn) [DTPA-DLys-Pro-(4-Gu)Phe-(4-Gu)Phe-Pro-Tyr-Ile-Leu-OH] ({DTPA}-[dK]P[ξPhe(4-guanidino)][ξPhe(4-guanidino)]PYIL-OH) | 2.3% | 6.76 | 25.2% |  | 
CC(C)C[C@H](NC(=O)[C@@H](NC(=O)[C@H](Cc1ccc(O)cc1)NC(=O)[C@@H]1CC(=O)CN1C(=O)[C@H](CCCNC(=N)N)NC(=O)C(NC(=O)[C@@H]1CCCN1C(=O)[C@@H](CCCCN)NC(=O)CN(CCN(CCN(CC(=O)O)CC(=O)O)CC(=O)O)CC(=O)O)C1CCN(C(=N)N)CC1)C(C)(C)C)C(=O)O (stereo partly drawn) [DTPA-DLys-Pro-Gly(PipAm)-Arg-(4-oxo)Pro-Tyr-tBuGly-Leu-OH] ({DTPA}-[dK]P[ξGly(4-Pip(1-amidino))]R[Pro(4-oxo)]Y[Tle]L-OH) | 79.7% | < 6.00 | 78.5% |  | 
CC(C)C[C@H](NC(=O)[C@@H](NC(=O)[C@H](Cc1ccc(O)cc1)NC(=O)[C@@H]1CCN1C(=O)[C@H](CCCNC(=N)N)NC(=O)C(NC(=O)[C@@H]1CCCN1C(=O)[C@@H](CCCCN)NC(=O)CN(CCN(CCN(CC(=O)O)CC(=O)O)CC(=O)O)CC(=O)O)C1CCN(C(=N)N)CC1)C(C)(C)C)C(=O)O (stereo partly drawn) [DTPA-DLys-Pro-Gly(PipAm)-Arg-AzeCA-Tyr-tBuGly-Leu-OH] ({DTPA}-[dK]P[ξGly(4-Pip(1-amidino))]R[Aze]Y[Tle]L-OH) | 36.5% | 6.13 | 79.2% |  | 
CC(C)C[C@H](NC(=O)[C@@H](NC(=O)[C@H](Cc1ccc(O)cc1)NC(=O)[C@H]1CCCCN1C(=O)[C@H](CCCNC(=N)N)NC(=O)C(NC(=O)[C@@H]1CCCN1C(=O)[C@@H](CCCCN)NC(=O)CN(CCN(CCN(CC(=O)O)CC(=O)O)CC(=O)O)CC(=O)O)C1CCN(C(=N)N)CC1)C(C)(C)C)C(=O)O (stereo partly drawn) [DTPA-DLys-Pro-Gly(PipAm)-Arg-DPipCA-Tyr-tBuGly-Leu-OH] ({DTPA}-[dK]P[ξGly(4-Pip(1-amidino))]R[dPip]Y[Tle]L-OH) | 91.9% | < 6.00 | 96.2% |  | 
CC(C)C[C@H](NC(=O)[C@@H](NC(=O)[C@H](Cc1ccc(O)cc1)NC(=O)[C@@H]1CCCCN1C(=O)[C@H](CCCNC(=N)N)NC(=O)C(NC(=O)[C@@H]1CCCN1C(=O)[C@@H](CCCCN)NC(=O)CN(CCN(CCN(CC(=O)O)CC(=O)O)CC(=O)O)CC(=O)O)C1CCN(C(=N)N)CC1)C(C)(C)C)C(=O)O (stereo partly drawn) [DTPA-DLys-Pro-Gly(PipAm)-Arg-PipCA-Tyr-tBuGly-Leu-OH] ({DTPA}-[dK]P[ξGly(4-Pip(1-amidino))]R[Pip]Y[Tle]L-OH) | 45.8% | < 6.00 | 69.5% |  | 
Cc1cc(O)cc(C)c1C[C@H](NC(=O)[C@@H]1CCCN1C(=O)[C@H](CCCNC(=N)N)NC(=O)C(NC(=O)[C@@H]1CCCN1C(=O)[C@@H](CCCCN)NC(=O)CN(CCN(CCN(CC(=O)O)CC(=O)O)CC(=O)O)CC(=O)O)C1CCN(C(=N)N)CC1)C(=O)N[C@H](C(=O)N[C@@H](CC(C)C)C(=O)O)C(C)(C)C (stereo partly drawn) [DTPA-DLys-Pro-Gly(PipAm)-Arg-Pro-(2,6-diMe)Tyr-tBuGly-Leu-OH] ({DTPA}-[dK]P[ξGly(4-Pip(1-amidino))]RP[Dmt][Tle]L-OH) | 99.2% | 7.35 | 96.6% |  | 
CC(C)C[C@H](NC(=O)C1(NC(=O)[C@H](Cc2ccc(O)cc2)NC(=O)[C@@H]2CCCN2C(=O)[C@H](CCCNC(=N)N)NC(=O)C(NC(=O)[C@@H]2CCCN2C(=O)[C@@H](CCCCN)NC(=O)CN(CCN(CCN(CC(=O)O)CC(=O)O)CC(=O)O)CC(=O)O)C2CCN(C(=N)N)CC2)CCCCC1)C(=O)O (stereo partly drawn) [DTPA-DLys-Pro-Gly(PipAm)-Arg-Pro-Tyr-Achc-Leu-OH] ({DTPA}-[dK]P[ξGly(4-Pip(1-amidino))]RPY[Ac6c]L-OH) | 84.9% | < 5.00 | 89.9% |  | 
CC(C)(C)[C@H](NC(=O)[C@H](Cc1ccc(O)cc1)NC(=O)[C@@H]1CCCN1C(=O)[C@H](CCCNC(=N)N)NC(=O)C(NC(=O)[C@@H]1CCCN1C(=O)[C@@H](CCCCN)NC(=O)CN(CCN(CCN(CC(=O)O)CC(=O)O)CC(=O)O)CC(=O)O)C1CCN(C(=N)N)CC1)C(=O)N[C@@H](CC1CCCCC1)C(=O)O (stereo partly drawn) [DTPA-DLys-Pro-Gly(PipAm)-Arg-Pro-Tyr-tBuGly-Cha-OH] ({DTPA}-[dK]P[ξGly(4-Pip(1-amidino))]RPY[Tle][Cha]-OH) | 65.9% | 7.92 | 81.2% |  | 
CC(C)(C)[C@H](NC(=O)[C@H](Cc1ccc(O)cc1)NC(=O)[C@@H]1CCCN1C(=O)[C@H](CCCNC(=N)N)NC(=O)C(NC(=O)[C@@H]1CCCN1C(=O)[C@@H](CCCCN)NC(=O)CN(CCN(CCN(CC(=O)O)CC(=O)O)CC(=O)O)CC(=O)O)C1CCN(C(=N)N)CC1)C(=O)N[C@@H](CC1CC1)C(=O)O (stereo partly drawn) [DTPA-DLys-Pro-Gly(PipAm)-Arg-Pro-Tyr-tBuGly-Cpa-OH] ({DTPA}-[dK]P[ξGly(4-Pip(1-amidino))]RPY[Tle][Ala(cPr)]-OH) | 73.6% | 6.54 | 88.1% |  | 
CC(C)(C)C[C@H](NC(=O)[C@@H](NC(=O)[C@H](Cc1ccc(O)cc1)NC(=O)[C@@H]1CCCN1C(=O)[C@H](CCCNC(=N)N)NC(=O)C(NC(=O)[C@@H]1CCCN1C(=O)[C@@H](CCCCN)NC(=O)CN(CCN(CCN(CC(=O)O)CC(=O)O)CC(=O)O)CC(=O)O)C1CCN(C(=N)N)CC1)C(C)(C)C)C(=O)O (stereo partly drawn) [DTPA-DLys-Pro-Gly(PipAm)-Arg-Pro-Tyr-tBuGly-tBuAla-OH] ({DTPA}-[dK]P[ξGly(4-Pip(1-amidino))]RPY[Tle][tBuAla]-OH) | 72.3% | 8.14 | 89.2% |  | 
CC(C)C[C@H](NC(=O)[C@@H](NC(=O)[C@H](Cc1cccc(O)c1)NC(=O)[C@@H]1CCCN1C(=O)[C@H](CCCNC(=N)N)NC(=O)C(NC(=O)[C@@H]1CCCN1C(=O)[C@@H](CCCCN)NC(=O)CN(CCN(CCN(CC(=O)O)CC(=O)O)CC(=O)O)CC(=O)O)C1CCN(C(=N)N)CC1)C(C)(C)C)C(=O)O (stereo partly drawn) [DTPA-DLys-Pro-Gly(PipAm)-Arg-Pro-mTyr-tBuGly-Leu-OH] ({DTPA}-[dK]P[ξGly(4-Pip(1-amidino))]RP[mTyr][Tle]L-OH) | 57.8% | 6.52 | 84.4% |  | 
CC(C)C[C@H](NC(=O)[C@@H](NC(=O)[C@H](Cc1ccc(O)cc1)NC(=O)[C@@H]1CCCN1C(=O)C(NC(=O)C(NC(=O)[C@@H]1CCCN1C(=O)[C@@H](CCCCN)NC(=O)CN(CCN(CCN(CC(=O)O)CC(=O)O)CC(=O)O)CC(=O)O)C1CCN(C(=N)N)CC1)C1CCNCC1)C(C)(C)C)C(=O)O (stereo partly drawn) [DTPA-DLys-Pro-Gly(PipAm)-PipGly-Pro-Tyr-tBuGly-Leu-OH] ({DTPA}-[dK]P[ξGly(4-Pip(1-amidino))][ξGly(piperidin-4-yl)]PY[Tle]L-OH) | 79.7% | 6.85 | 91.6% |  | 
DTPA-Lys^8(Ψ-CH2NH)Arg^9-Pro-Tyr-Ile-Leu-OH ({DTPA}-KRPYIL-OH; also: reduced CH2NH bond between Lys and Arg) [DTPA-Lys^8-Ψ(CH2NH)-Arg^8-NT(8–13)] |  |  |  | 7.89 | 
DTPA-Lys^8-Ψ(CH2NH)-Lys^8-NT(8–13) |  |  |  | 8.13 | 
monoiodo-125-[Trp^11]-neurotensin (QLYENKPRRPWIL; Neurotensin monoiodo 125I label; UniProt P30990 151-163, looked up, variant Y11W) |  |  |  |  | 10.00
